Compound	log10 OH rate constant (cm³/molecule/s) (25.0 °C)	also measured
CCCCCCC(C)C	-11	
CCC(O)CC	-10.9	
C1CCCCC1	-11.1	
CCSCC	-10.8	
CCCCCCCCCCCCC	-10.8	
c1ccsc1	-11	
CCCCCCCCC	-11	
FC(F)(F)CCl	-13.8	
COc1ccccc1	-10.8	
c1ccc(-c2ccccc2)cc1	-11.1	
CCCC(C)(C)C	-11.5	
C=C(C)C	-10.3	
CC(=O)CCC(C)=O	-11.1	
C=CC=O	-10.7	
Oc1cccc(Cl)c1Cl	-11.8	
CCSC	-11.1	
Cc1ccccc1O	-10.4	
C=C=C(C)C	-10.2	
CC(C)C(C)C	-11.2	
C=CCCCC	-10.4	
CCC	-11.9	
OCC(Cl)(Cl)Cl	-12.6	
CN(C)N=O	-11.6	
C=C=C		log10 OH rate constant (cm³/molecule/s) (22.0 °C): -11

Compound	log10 OH rate constant (cm³/molecule/s) (25.0 °C)	also measured
OCC(F)(F)F	-13	
CCC(C)=O	-11.9	
ClCC1CO1 (centres undefined)	-12.4	
C1CC2CCC1C2	-11.3	
C=C1CCC2CC1C2(C)C (centres undefined)	-10.1	
CCO	-11.5	
CCCCCCCCCC	-10.9	
CCC(=O)OC	-12	
C/C=N/O	-11.7	
C/C=C/C=O	-10.4	
CCCC(C)O (centres undefined)	-10.9	
CC(C)S	-10.4	
ClC(Cl)Cl	-13	
Cc1ccoc1	-10	
CC(F)F	-13.5	
CCOCOCC	-10.8	
FC(F)(F)Cl	< -15.2	
CC(C)C1CC1	-11.5	
CC(=O)CO	-11.5	
CC(=O)CC(C)=O	-11.9	
C=C=O	-10.8	
C=C(C)C=O	-10.5	
C#CCCC	-11	
CC1CO1 (centres undefined)	-12.3	

Compound	log10 OH rate constant (cm³/molecule/s) (25.0 °C)	also measured
CCCS	-10.3	
O=C1CCC1	-12.1	
C1=CCCCC=C1	-9.86	
CCC(C)OC(C)=O (centres undefined)	-11.3	
FC(F)(F)F	< -15.4	
CCN(O)CC	-10	
Clc1ccc(-c2ccccc2)cc1	-11.4	
C1=CCCCC1	-10.2	
CC=C=O	-10.2	
FCCl	-13.4	
CCC(=O)CC	-11.7	
Cc1ccc(C)c(C)c1	-10.5	
C1CO1	-13.1	
FC(Cl)Cl	-13.5	
COC(C)=O		log10 OH rate constant (cm³/molecule/s) (23.0 °C): -12.5
Cc1ccccc1[N+](=O)[O-]	-12.2	
CCCCOC(=O)CCC	-11	
FC(F)C(F)(F)F	-14.6	
Cc1cccc(O)c1	-10.2	
CC(C)CC=O	-10.6	
CCC=C=O	-9.93	
CCCCCCCCC(C)=O	-10.9	
CC(C)(C)S	-10.5	
OCCO	-11.1	

Compound	log10 OH rate constant (cm³/molecule/s) (25.0 °C)	also measured
C=C=CC	-10.6	
BrCCBr	-12.6	
Oc1ccccc1	-10.6	
c1ccoc1	-10.4	
Clc1ccc(Cl)cc1	-12.5	
O=[N+]([O-])c1ccc2ccccc2c1	-11.3	
Cc1ccc(O)cc1	-10.3	
Clc1ccccc1	-12.1	
C1CCSC1	-10.7	
CC1=CC[C@@H](C(C)C)CC1	-9.9	
COP(=S)(OC)SC	-10.3	
Nc1ccc(Cc2ccc(N)cc2)cc1	-10.5	
CC(C)=Cc1ccccc1	-10.5	
CC(C)C(=O)C(C)C	-11.3	
C=CCCl	-10.8	
CCCC	-11.6	
CC=Cc1ccccc1	-10.2	
CCC(C)C	-11.4	
CCCOC(C)=O	-11.5	
c1ncncn1		log10 OH rate constant (cm³/molecule/s) (23.0 °C): -12.8
CBr	-13.4	
CCCCCCCC	-11.1	
Oc1ccc(Cl)cc1Cl	-12	
ClCCl	-12.8	

Compound	log10 OH rate constant (cm³/molecule/s) (25.0 °C)	also measured
FC(F)=C(Cl)Cl	-11.1	
Cc1ccc(N)cc1N	-9.72	
CC(C)c1ccccc1	-11.2	
C1CCCCCCC1	-10.9	
CCCCCC	-11.3	
C=C1C=CC(C(C)C)CC1 (centres undefined)	-9.77	
Cc1ccc(C)cc1	-10.8	
CCc1cccc(C)c1	-10.7	
CCOC=O	-12	
CC(C)(C)C(C)(C)C	-12	
O=CCO	-11	
Sc1ccccc1	-11	
CCCCC=O	-10.5	
CCC(C)CC	-11.2	
COC(C)OC	-11.1	
CC(F)(F)F	-14.8	
Cc1ccccc1	-11.2	
C#CC#C	-10.7	
c1ccccc1	-11.9	
O=[N+]([O-])c1ccccc1	-12.9	
CC(=O)c1ccccc1	-11.6	
CN(C)c1ccccc1	-9.83	
Cc1ccc2ccccc2c1[N+](=O)[O-]	< -11.1	
CC(C)=CC=C(C)C	-9.68	

Compound	log10 OH rate constant (cm³/molecule/s) (25.0 °C)	also measured
CCCCC(C)=O	-11	
C1=CC2C=CC1C2	-9.92	
Clc1ccccc1Cl	-12.4	
C=CC=CC=C	-10.3	
Ic1ccccc1	-12	
C=CCCCCC	-10.4	
C1CCCC1	-11.3	
C1CC2CCC1CC2	-10.8	
CCCC(=O)CC	-11.2	
CCCCS	-10.3	
C1COCOC1	-11	
Cc1cccc2ccccc12	-10.3	
CCCCC(C)O (centres undefined)	-10.9	
CCN		log10 OH rate constant (cm³/molecule/s) (27.0 °C): -10.6
CC(C)COCC(C)C	-10.6	
c1ccc2c(c1)CCO2	-10.4	
CCCSCCC	-10.7	
CC(C)(C)O	-12	
CC(=O)C=O	-10.8	
C1=CC=CCC=C1	-10	
Clc1ccc(Cl)c2ccccc12	-11.2	
OC1CCCC1	-11	
O=CO	-12.3	
CC(=O)CC(C)C	-10.9	

Compound	log10 OH rate constant (cm³/molecule/s) (25.0 °C)	also measured
O=CCCCC=O	-10.6	
C1CCC2CCCCC2C1 (centres undefined)	-10.7	
CC(=O)O	-12.1	
N#Cc1ccccc1	-12.5	
C=CC(C)(C)C	-10.5	
CC=O	-10.8	
C1COCCO1	-11	
CNC	-10.2	
C1C2CC3CC1CC(C2)C3	-10.6	
OCc1ccccc1	-10.6	
CCCCCCC	-11.1	
O=CC=O	-10.9	
c1ccc2c(c1)CCCC2	-10.5	
COCCO	-10.9	
CCCCC(C)(C)C	-11.3	
C1=CC2CCC1C2	-10.3	
CC(C)C=O	-10.6	
CC(C)=C(C)C	-9.96	
c1ccc2ccccc2c1	-10.7	
C=CF	-11.3	
CC1=CC=C(C(C)C)CC1		log10 OH rate constant (cm³/molecule/s) (21.0 °C): -9.44
CC	-12.6	
CC(C)C(=O)O	-11.7	
C=CCC=C	-10.3	

Compound	log10 OH rate constant (cm³/molecule/s) (25.0 °C)	also measured
CCc1ccc(C)cc1	-10.9	
CC(=O)OO[N+](=O)[O-]	-13	
C#CCC	-11.1	
CC(=O)C(F)(F)F	-13.8	
COCCOCCOC	-10.8	
ClC=C(Cl)Cl	-11.6	
C=C=CCC	-10.4	
CCC(C)(C)C	-11.6	
Cc1cccc(C)c1	-10.6	
C=CC(C)=O	-10.7	
CC1=CCCCC1	-10	
CC(=O)OC(C)C	-11.5	
O=[N+]([O-])c1ccccc1O	-12	
Fc1ccccc1	-12.2	
Nc1ccc(Cl)cc1	-10.4	
CC(C)(C)c1ccccc1	-11.3	
CCCCC(C)CCC (centres undefined)	-11	
CNN	-10.2	
ClC(Cl)(Cl)Cl	< -15.9	
CN		log10 OH rate constant (cm³/molecule/s) (26.0 °C): -10.7
FC(F)(F)c1ccc(Cl)cc1	-12.6	

From the OPERA property sets (Mansouri et al. 2018)
